Assay results taken from US20240263159A1, “GENE EDITING IN PRIMARY IMMUNE CELLS USING CELL PENETRATING CRISPR-CAS SYSTEM” (THE TRUSTEES OF THE UNIVERSITY OF PENNSYLVANIA, priority 2021, published 2024).

Columns and labels:
CD45.2 = experiment: in vitro editing in mouse primary CD8 T cells, CD45.2 knockdown by flow cytometry; assay type: cell-based; conditions: CD45.2 sgRNA_1, 5 μM TAT-4×Myc NLS-Cas9, 75 μM dTAT-HA2, Day 4
Description: FIG. 3C: An example of flow plots showing the percentage of sgRNA+Cas9+ for Rosa and CD45.2.
FIG. 3D: Target genes are knocked down during Days 1-5 in vitro culture as measured by flow cytometry.
RN2-Cas9 cells were infected with retrovirus expressing sgRNA and mCherry, and CD45.2 expression level was measured by flow cytometry after 3 days of infection. Both sgRNAs targeting CD45.2 efficiently knocked down CD45.2 compared to sgRNAs targeting Rosa26 (FIG. 3A). It was next tested whether TAT-4×Myc Cas9 can edit the genome in mouse primary CD8 T cells. Briefly, on Day −2, primary CD8 T cells were isolated from 3-month-old mouse spleen and activated by CD3, […], and IL-2 for 24 hours. On Day −1, the activated cells were infected with retrovirus expressing sgRNA and mCherry for 24 hours. Cells were then treated with 5 μM TAT-4×Myc NLS-Cas9 (with GFP tag) and 75 μM dTAT-HA2, and incubated in RPMI 1640 supplied with 1% FBS and 50 μM 2-mercaptoethanol in a 37° C. incubator for 40 min. […] CD45.2 expression level was measured by flow cytometry from Day 1 to Day 5. […] The stability of TAT-4×Myc NLS-Cas9 was evaluated in the cells by measuring normalized Mean Fluorescence Intensity (MFI) of GFP.

CD90.2 = experiment: in vitro editing in mouse primary CD8 T cells, CD90.2 knockdown by flow cytometry; assay type: cell-based
8.7 kb DNA fragment = experiment: in vitro DNA cleavage assay; assay type: biochemical; conditions: Cas9 RNP with sgRNA, 37° C.
Description: Cas9 RNPs were assembled by incubating purified spCas9 or TAT-4×Myc NLS-Cas9 with sgRNA targeting a 8.7 kb DNA fragment, and incubated with the DNA fragment for 1, 5, 10, and 15 min at 37° C. The reaction was stopped and the DNA products were separated on a 0.8% agarose gel. Uncut band (˜8.7 kb) and two cleaved bands (˜2.7 kb and 6 kb) are shown on the gel.
TAT-4×Myc NLS-Cas9 expression construct was created by replacing the 4×SV40 NLS (PKKKRKV (SEQ ID NO: 1423)) at the N-terminus of Cas9 (Staahl et al., (2017) Nat Biotechnol 35, 431-434) with 4×Myc NLS ([…] (SEQ ID NO: 1)) with linker -G-G-S- between Myc NLS. The sequence of the TAT cell penetrating peptide ([…] (SEQ ID NO: 2)), derived from the trans-activating transcriptional activator (Tat) from HIV-1 (Frankel and Pabo, 1988; Green and Loewenstein, 1988), was added to the N-terminus, and TAT-4×Myc NLS-Cas9 was cloned into a bacterial recombinant protein expression vector (Gootenberg et al., 2017) with a Twin-Strep and SUMO tag (FIG. 1A). Next, TAT-4×Myc NLS-Cas9 protein was purified by Strep-Tactin affinity chromatography followed by on-column SUMO protease digestion, ion exchange chromatography (IEC), and size exclusion chromatography (SEC) (FIG. 1B) (Gootenberg et al., (2017) Science 356, 438-442).

[1] = system: EL4 mCherry reporter cell line; experiment: EL4 mCherry reporter gene editing, loss of mCherry by flow cytometry; conditions: 5 μM TAT-4×Myc NLS-Cas9, 75 μM dTAT-HA2, 30 min, no FBS
PD-1 = conditions: mouse, in vivo
Thy1 and Ptprc genes = experiment: Cas9-PAGE with retroviral sgRNA in murine primary CD8 T cells ex vivo (flow cytometry, TIDE assay); assay type: cell-based; conditions: sgThy1_IG1 or sgNeg, various concentrations of TH, 5 μM Cas9-T6N^CPP, 30 min
Description: FIG. 12A: A schematic of the experimental workflow of evaluating the PAGE system in murine primary CD8 T cells ex vivo. Murine primary T cells were activated with anti-CD3, anti-CD28 and IL-2, followed by retroviral transduction with a sgRNA expression vector linked with mCherry fluorescent marker. […] Gene editing was evaluated at various time points by flow cytometry against indicated gene products or via direct sanger sequencing of the targeted genomic regions. […] Cells were transduced with either sgThy1_IG1 or sgNeg, followed by 30 min incubation with various concentrations of TH and 5 μM Cas9-T6N^CPP. Flow cytometry analysis was performed at the indicated days post-treatment. […] FIG. 12C: Mean Fluorescent Intensity (MFI) quantification of the flow cytometry analysis at 4 days post-treatment in FIG. 12B (left panel). […] FIG. 12E: Quantification of live cell recovery of CD8 T cells treated with an increased concentration of TH. […] Genomic DNA was isolated at day 6 post-treatment of PAGE, sanger sequenced, and followed by quantification via an online TIDE analysis tool. sgThy1_IG1, sgThy1_IG2, sgThy1_IG3, sgRNAs targeting the Immunoglobulin domain of Thy1 gene; sgPtprc_CAT1 and sgPtprc_TM1, sgRNAs targeting either the catalytic domain or transmembrane domain of Ptprc gene; sgNeg, an sgRNA targeting Ano9 gene was used as a negative control here. […]

| Substance | percentage of CD45.2 knockdown cells, maximum (CD45.2) | percentage of CD90.2 knockdown cells, maximum (CD90.2; CD90.2 sgRNA_2, 5 μM TAT-4×Myc NLS-Cas9, 75 μM dTAT-HA2, Day 3) | percentage of CD90.2 knockdown cells, maximum (CD90.2; CD90.2 sgRNA_3, 5 μM TAT-4×Myc NLS-Cas9, 75 μM dTAT-HA2, Day 3) | DNA cleavage (8.7 kb DNA fragment) | percentage of mCherry^− cells [1] | PD-1 expression (PD-1) | percentage of sgRNA^+P14 T cell population and total number of sgRNA^+P14 T cells (PD-1) | Cas9-T6N^CPP gene editing in murine primary CD8 T cells (Thy1 and Ptprc genes) |
| --- | --- | --- | --- | --- | --- | --- | --- | --- |
| TAT-4×NLS^MYC-Cas9-2×NLS^SV40-sfGFP [TAT-4×Myc NLS-Cas9] | ~60% | ~90% | ~70% | efficiently cleaved DNA | 92.9% | ~20% | increased | – |
| dTAT-HA2 [TH] | – | – | – | – | – | – | – | promoted Cas9-T6N^CPP gene editing |
